Laboratory results reported in ChEMBL document CHEMBL4680245, “Design, synthesis and biological evaluation of tetrahydroquinoline-based reversible LSD1 inhibitors” (Eur J Med Chem, 2020).

Columns and labels:
[1] = biological target: Lysine-specific histone demethylase 1A (Homo sapiens, UniProt O60341)
Description: Inhibition of human recombinant LSD1 using fluorogenic ADHP based substrate preincubated for 30 mins followed by substrate addition measured after 10 mins by horseradish peroxidase coupled fluorescence assay

A549 = experiment: cells; conditions: Homo sapiens, A549, 72 h
Description: Antiproliferative activity against human A549 cells incubated for 72 hrs by CCK8 assay

MGC-803 = experiment: cells; conditions: Homo sapiens, MGC-803, 72 h
Description: Antiproliferative activity against human MGC-803 cells incubated for 72 hrs by CCK8 assay

MCF7 = experiment: cells; conditions: Homo sapiens, MCF7, 72 h
Description: Antiproliferative activity against human MCF7 cells incubated for 72 hrs by CCK8 assay

PC-3 = experiment: cells; conditions: Homo sapiens, PC-3, 72 h
Description: Antiproliferative activity against human PC-3 cells incubated for 72 hrs by CCK8 assay

THP-1 = experiment: cells; conditions: Homo sapiens, THP-1, 72 h
Description: Antiproliferative activity against human THP-1 cells incubated for 72 hrs by CCK8 assay

NB-4 = experiment: cells; conditions: Homo sapiens, NB-4, 72 h
Description: Antiproliferative activity against human NB-4 cells incubated for 72 hrs by CCK8 assay

[2] = Solubility of compound; type: physicochemical

SMILES | IC50 [1] | further results
Cn1nc(C(=O)Nc2cccc3c2N(Cc2ccc(OC4CCNCC4)cc2)CCC3)c2ccccc21 | 0.97 nM | –
O=C(Nc1cccc2c1N(Cc1ccc(OC3CCNCC3)cc1)CCC2)c1cc2ccccc2n1C(F)F | 0.39 nM | –
O=C(Nc1cccc2c1N(Cc1ccc(OC3CCNCC3)cc1)CCC2)c1ccc(C(F)(F)F)cc1 | 1.82 nM | –
Cn1c(C(=O)Nc2cccc3c2N(Cc2ccc(OC4CCNCC4)cc2)CCC3)cc2ccc(Cl)cc21 | 1.13 nM | –
Cn1c(C(=O)Nc2cccc3c2N(Cc2ccc(OC4CCNCC4)cc2)CCC3)cc2cc(Cl)ccc21 | 16.3 nM | –
Cn1c(C(=O)Nc2cccc3c2N(Cc2ccc(OCc4cccc(C(N)=O)c4)cc2)CCC3)cc2sccc21 | > 50000 nM | –
Cn1c(C(=O)Nc2cccc3c2N(Cc2ccc(OC[C@@H]4CCNC4)cc2)CCC3)cc2sccc21 | 80.4 nM | IC50 (A549): 5230 nM
Cn1c(C(=O)Nc2cccc3c2N(Cc2ccc(O[C@H]4CC[C@@H](N)CC4)cc2)CCC3)cc2sccc21 | 38.3 nM | IC50 (A549): 7300 nM
O=C(Nc1cccc2c1N(Cc1ccc(OC3CCNCC3)cc1)CCC2)c1ccc2ccccc2n1 | 13.1 nM | –
O=C(Nc1cccc2c1N(Cc1ccc(OC3CCNCC3)cc1)CCC2)c1cccc2[nH]ccc12 | 0.54 nM | –
O=C(Nc1cccc2c1N(Cc1ccc(OC3CCNCC3)cc1)CCC2)c1cc2ccccc2s1 | 0.93 nM | –
Cn1c(C(=O)Nc2cccc3c2N(Cc2ccc(OCCCN)cc2)CCC3)cc2sccc21 | 47.4 nM | –
Cc1ccc2c(c1)cc(C(=O)Nc1cccc3c1N(Cc1ccc(OC4CCNCC4)cc1)CCC3)n2C | > 50 nM | –
Cn1c(C(=O)Nc2cccc3c2N(Cc2ccc(OCc4ccc(C#N)cc4)cc2)CCC3)cc2sccc21 | > 50000 nM | –
Cn1c(C(=O)Nc2cccc3c2N(Cc2ccc(OCc4ccc([N+](=O)[O-])cc4)cc2)CCC3)cc2sccc21 | > 50000 nM | –
O=C(Nc1cccc2c1N(Cc1ccc(OC3CCNCC3)cc1)CCC2)c1cc2ccccc2n1CC(F)F | 0.78 nM | –
CC(C)n1c(C(=O)Nc2cccc3c2N(Cc2ccc(OC4CCNCC4)cc2)CCC3)cc2ccccc21 | 0.18 nM | –
Cn1cc(C(=O)Nc2cccc3c2N(Cc2ccc(OC4CCNCC4)cc2)CCC3)c2ccccc21 | 4.55 nM | –
O=C(Nc1cccc2c1N(Cc1ccc(OC3CCNCC3)cc1)CCC2)c1cc2ccccc2n1CCCl | 0.15 nM | –
O=C(Nc1cccc2c1N(Cc1ccc(OC3CCNCC3)cc1)CCC2)c1cc2ccccc2n1CCF | 0.06 nM | IC50 (A549): 7670 nM; IC50 (MGC-803): 6260 nM; IC50 (MCF7): 6960 nM; IC50 (PC-3): 2600 nM; IC50 (THP-1): 9780 nM; IC50 (NB-4): 3290 nM
Cn1c(C(=O)Nc2cccc3c2N(Cc2ccc(OC[C@H]4CCNC4)cc2)CCC3)cc2sccc21 | 149 nM | –
O=C(Nc1cccc2c1N(Cc1ccc(OC3CCNCC3)cc1)CCC2)c1cc2ccccc2o1 | 0.53 nM | –
Cn1c(C(=O)Nc2cccc3c2N(Cc2ccc(OCc4cccc([N+](=O)[O-])c4)cc2)CCC3)cc2sccc21 | > 50000 nM | –
O=C(Nc1cccc2c1N(Cc1ccc(OC3CCNCC3)cc1)CCC2)c1cnc2ccccc2c1 | 18.8 nM | –
CN1CCC(COc2ccc(CN3CCCc4cccc(NC(=O)c5cc6sccc6n5C)c43)cc2)CC1 | 53.5 nM | –
CCn1c(C(=O)Nc2cccc3c2N(Cc2ccc(OC4CCNCC4)cc2)CCC3)cc2ccccc21 | 0.15 nM | IC50 (A549): 8390 nM; IC50 (MGC-803): 3670 nM; IC50 (MCF7): 5590 nM; IC50 (PC-3): 5430 nM; IC50 (THP-1): 10200 nM; IC50 (NB-4): 1100 nM
Cn1c(C(=O)Nc2cccc3c2N(Cc2ccc(OCC4CCOCC4)cc2)CCC3)cc2sccc21 | 732 nM | –
COc1ccc2c(c1)cc(C(=O)Nc1cccc3c1N(Cc1ccc(OC4CCNCC4)cc1)CCC3)n2C | > 50 nM | –

SMILES | IC50 [1] | further results
O=C(Nc1cccc2c1N(Cc1ccc(OC3CCNCC3)cc1)CCC2)c1nc2ccccc2[nH]1 | 2.31 nM | –
Cc1ccncc1C(=O)Nc1cccc2c1N(Cc1ccc(OC3CCNCC3)cc1)CCC2 | 1.56 nM | –
Cn1c(C(=O)Nc2cccc3c2N(Cc2ccc(OCc4ccc(N)cc4)cc2)CCC3)cc2sccc21 | > 50000 nM | –
CNc1cccc(COc2ccc(CN3CCCc4cccc(NC(=O)c5cc6sccc6n5C)c43)cc2)c1 | > 50000 nM | –
Cn1c(C(=O)Nc2cccc3c2N(Cc2ccc(OC4CC[N+](C)(C)CC4)cc2)CCC3)cc2sccc21 | 8.25 nM | solubility [2]: Insoluble
O=C(Nc1cccc2c1N(Cc1ccc(OC3CCNCC3)cc1)CCC2)c1cc2ccccc2[nH]1 | 2.81 nM | –
O=C(Nc1cccc2c1N(Cc1ccc(OC3CCNCC3)cc1)CCC2)c1ccc(C(F)(F)F)nc1 | > 50 nM | –
O=C(Nc1cccc2c1N(Cc1ccc(OC3CCNCC3)cc1)CCC2)c1cc2ccccc2n1CC1CC1 | 2.65 nM | –
CN(C)c1cccc(COc2ccc(CN3CCCc4cccc(NC(=O)c5cc6sccc6n5C)c43)cc2)c1 | > 50000 nM | –
Cn1c(C(=O)Nc2cccc3c2N(Cc2ccc(OC4CCNCC4)cc2)CCC3)cc2sccc21 | 36.4 nM | IC50 (A549): 1250 nM; IC50 (MGC-803): 2170 nM; IC50 (MCF7): 5720 nM; IC50 (PC-3): 3640 nM; IC50 (THP-1): 18100 nM; IC50 (NB-4): 2780 nM
Cn1c(C(=O)Nc2cccc3c2N(Cc2ccc(OCc4ccc(C(N)=O)cc4)cc2)CCC3)cc2sccc21 | > 50000 nM | –
Cn1ccc2cccc(C(=O)Nc3cccc4c3N(Cc3ccc(OC5CCNCC5)cc3)CCC4)c21 | 4.44 nM | –
O=C(Nc1cccc2c1N(Cc1ccc(OC3CCNCC3)cc1)CCC2)c1nc2ccccc2s1 | 0.92 nM | –
O=C(Nc1cccc2c1N(Cc1ccc(OC3CCNCC3)cc1)CCC2)c1ccc2[nH]ccc2c1 | 4.58 nM | –
Cn1ccc2c(C(=O)Nc3cccc4c3N(Cc3ccc(OC5CCNCC5)cc3)CCC4)cccc21 | 3.92 nM | –
CN1CCC(Oc2ccc(CN3CCCc4cccc(NC(=O)c5cc6sccc6n5C)c43)cc2)CC1 | 38.2 nM | –
N[C@H]1CC[C@H](N[C@H]2C[C@@H]2c2ccccc2)CC1 | – | IC50 (A549): > 30000 nM; IC50 (MGC-803): > 30000 nM; IC50 (MCF7): > 30000 nM; IC50 (PC-3): > 30000 nM; IC50 (THP-1): > 30000 nM; IC50 (NB-4): > 30000 nM
Cn1ccc2cc(C(=O)Nc3cccc4c3N(Cc3ccc(OC5CCNCC5)cc3)CCC4)ccc21 | 25.6 nM | –
Cn1c(C(=O)Nc2cccc3c2N(Cc2ccc(O[C@H]4CC[C@H](N(C)C)CC4)cc2)CCC3)cc2sccc21 | 36.3 nM | –
Cn1c(C(=O)Nc2cccc3c2N(Cc2ccc(OCc4cccc(C#N)c4)cc2)CCC3)cc2sccc21 | > 50000 nM | –
CN(C)CCCOc1ccc(CN2CCCc3cccc(NC(=O)c4cc5sccc5n4C)c32)cc1 | 31.3 nM | –
Cn1c(C(=O)Nc2cccc3c2N(Cc2ccc(OC4CCNC4)cc2)CCC3)cc2sccc21 (centres undefined) | 46.8 nM | IC50 (A549): 3640 nM
Cn1c(C(=O)Nc2cccc3c2N(Cc2ccc(OCC4CCNCC4)cc2)CCC3)cc2sccc21 | 37.7 nM | IC50 (A549): 2820 nM; IC50 (MGC-803): 3690 nM; IC50 (MCF7): 6590 nM; IC50 (PC-3): 4070 nM; IC50 (THP-1): 20400 nM; IC50 (NB-4): 2880 nM
CCCn1c(C(=O)Nc2cccc3c2N(Cc2ccc(OC4CCNCC4)cc2)CCC3)cc2ccccc21 | 1.52 nM | –
Cn1c(C(=O)Nc2cccc3c2N(Cc2ccc(OCC4CC[N+](C)(C)CC4)cc2)CCC3)cc2sccc21 | 17.3 nM | solubility [2]: Insoluble
O=C(Nc1cccc2c1N(Cc1ccc(OC3CCNCC3)cc1)CCC2)c1ccc(C(F)(F)F)cc1F | 5.12 nM | –
Cn1c(C(=O)Nc2cccc3c2N(Cc2ccc(O[C@H]4CC[C@H](N)CC4)cc2)CCC3)cc2sccc21 | 36.6 nM | –
